Active and inactive are the calls of the source.
How the values were obtained:
[1] = molecular target: Ras and Rab interactor 1/Tyrosine-protein kinase ABL1 (Homo sapiens, UniProt P00519+Q13671); type: functional;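 further: biochemical TR-FRET dose-response test measuring inhibition of binding between Rin1 and Abl proteins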
Cytochrome P450 3A4 = Cytochrome P450 3A4 (Homo sapiens, UniProt P08684);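 further: CYP3A4 tested as one member of a cytochrome P450 panel screen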
Cytochrome P450 2D6 = Cytochrome P450 2D6 (Homo sapiens, UniProt P10635);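 further: CYP2D6 member of a cytochrome P450 panel assay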
Cytochrome P450 2C9 = Cytochrome P450 2C9 (Homo sapiens, UniProt P11712)
[2] = molecular target: T1, High affinity choline transporter 1 (Homo sapiens, UniProt Q9GZV3); assay: human choline transporter blockers, potency – cell-based, 5-point CRC, membrane potential dye, dose response (AID 504840); type: functional
T1 sequence (Q9GZV3 whole entry): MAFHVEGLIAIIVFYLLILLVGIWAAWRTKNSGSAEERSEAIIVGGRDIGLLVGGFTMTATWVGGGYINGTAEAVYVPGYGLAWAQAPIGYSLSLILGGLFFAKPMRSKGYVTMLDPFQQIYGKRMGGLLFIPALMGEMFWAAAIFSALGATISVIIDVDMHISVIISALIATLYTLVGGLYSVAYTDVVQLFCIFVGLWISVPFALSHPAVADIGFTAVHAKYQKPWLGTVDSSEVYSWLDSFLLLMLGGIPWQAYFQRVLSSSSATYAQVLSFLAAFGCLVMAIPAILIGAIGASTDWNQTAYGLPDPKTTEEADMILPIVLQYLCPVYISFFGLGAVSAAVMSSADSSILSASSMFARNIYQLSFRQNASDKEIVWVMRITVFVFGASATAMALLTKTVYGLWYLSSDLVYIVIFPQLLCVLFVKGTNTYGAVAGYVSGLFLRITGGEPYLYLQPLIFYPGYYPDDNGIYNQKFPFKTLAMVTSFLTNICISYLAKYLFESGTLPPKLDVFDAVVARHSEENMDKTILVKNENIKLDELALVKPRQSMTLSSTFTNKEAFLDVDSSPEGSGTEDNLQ

[3] = molecular target: T1, High affinity choline transporter 1; assay: human choline transporter blockers, potency – cell-based, 10-point CRC, membrane potential dye, dose response (AID 588401); type: functional;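 further: membrane potential dye fluorescence of choline-evoked depolarization via CHT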
[4] = molecular target: Mitogen-activated protein kinase 10 (Homo sapiens, UniProt P53779); assay: Dose response biochemical screening assay for inhibitors of c-Jun N-Terminal Kinase 3 (JNK3). [Related pubchem assays: 746 ]
[5] = system: Streptococcus sp. 'group A'; assay: Streptococcus pyogenes SK(-)GAS viability under kanamycin – luminescence, BacTiterGlo, confirmation, counter-screen for streptokinase expression inhibitor project, dose response (AID 1900); type: functional, organism-based
Streptokinase A = molecular target: T2, Streptokinase A (Streptococcus pyogenes serotype M1, UniProt P10520); assay: viability-normalized secreted streptokinase activity reduction – plasminogen activation absorbance, OD405, dose response (AID 1914); type: functional, Streptococcus pyogenes M1 GAS;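 further: secreted streptokinase activity via plasminogen activation per viability signal from cell pellet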
T2 sequence (P10520 whole entry): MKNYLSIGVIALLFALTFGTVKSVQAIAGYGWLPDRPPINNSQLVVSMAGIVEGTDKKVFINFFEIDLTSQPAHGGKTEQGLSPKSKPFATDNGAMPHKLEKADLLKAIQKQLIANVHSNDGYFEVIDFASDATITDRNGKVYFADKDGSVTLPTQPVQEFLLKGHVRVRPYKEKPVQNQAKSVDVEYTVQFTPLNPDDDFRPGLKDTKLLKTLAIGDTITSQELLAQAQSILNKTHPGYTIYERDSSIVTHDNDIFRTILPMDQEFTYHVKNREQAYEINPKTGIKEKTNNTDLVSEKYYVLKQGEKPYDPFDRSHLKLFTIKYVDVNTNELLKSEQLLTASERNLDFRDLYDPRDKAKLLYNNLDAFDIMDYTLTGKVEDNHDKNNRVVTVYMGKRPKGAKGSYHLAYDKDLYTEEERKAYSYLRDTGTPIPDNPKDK

Streptococcus = assay: GAS UMAA2166 growth inhibition – luminescence, BacTiterGlo, counter-screen for streptokinase expression inhibitor project, dose response (AID 1915); type: functional, organism-based;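 further: potency for reduction of bacterial viability or growth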
[6] = molecular target: G-protein coupled receptor 55 (Homo sapiens, UniProt Q9Y2T6); assay: selective activators of receptor GPR55 – imaging, U2OS cells, beta-arrestin-GFP redistribution, primary screen (AID 1961); type: functional
[7] = Luminescence Cell-Based Dose Retest to Confirm Inhibitors of Cancer Stem Cells. [Related pubchem assays (depositor defined):AID2717, AID2721]; type: functional; details: Homo sapiens
Insulin-degrading enzyme [8] = molecular target: T3, Insulin-degrading enzyme (Homo sapiens, UniProt P14735); assay: recombinant IDE activation, cell-free – biochemical, fluorescence polarization, counter-screen for IDE activator project, dose response (AID 588681)
T3 sequence (P14735 whole entry): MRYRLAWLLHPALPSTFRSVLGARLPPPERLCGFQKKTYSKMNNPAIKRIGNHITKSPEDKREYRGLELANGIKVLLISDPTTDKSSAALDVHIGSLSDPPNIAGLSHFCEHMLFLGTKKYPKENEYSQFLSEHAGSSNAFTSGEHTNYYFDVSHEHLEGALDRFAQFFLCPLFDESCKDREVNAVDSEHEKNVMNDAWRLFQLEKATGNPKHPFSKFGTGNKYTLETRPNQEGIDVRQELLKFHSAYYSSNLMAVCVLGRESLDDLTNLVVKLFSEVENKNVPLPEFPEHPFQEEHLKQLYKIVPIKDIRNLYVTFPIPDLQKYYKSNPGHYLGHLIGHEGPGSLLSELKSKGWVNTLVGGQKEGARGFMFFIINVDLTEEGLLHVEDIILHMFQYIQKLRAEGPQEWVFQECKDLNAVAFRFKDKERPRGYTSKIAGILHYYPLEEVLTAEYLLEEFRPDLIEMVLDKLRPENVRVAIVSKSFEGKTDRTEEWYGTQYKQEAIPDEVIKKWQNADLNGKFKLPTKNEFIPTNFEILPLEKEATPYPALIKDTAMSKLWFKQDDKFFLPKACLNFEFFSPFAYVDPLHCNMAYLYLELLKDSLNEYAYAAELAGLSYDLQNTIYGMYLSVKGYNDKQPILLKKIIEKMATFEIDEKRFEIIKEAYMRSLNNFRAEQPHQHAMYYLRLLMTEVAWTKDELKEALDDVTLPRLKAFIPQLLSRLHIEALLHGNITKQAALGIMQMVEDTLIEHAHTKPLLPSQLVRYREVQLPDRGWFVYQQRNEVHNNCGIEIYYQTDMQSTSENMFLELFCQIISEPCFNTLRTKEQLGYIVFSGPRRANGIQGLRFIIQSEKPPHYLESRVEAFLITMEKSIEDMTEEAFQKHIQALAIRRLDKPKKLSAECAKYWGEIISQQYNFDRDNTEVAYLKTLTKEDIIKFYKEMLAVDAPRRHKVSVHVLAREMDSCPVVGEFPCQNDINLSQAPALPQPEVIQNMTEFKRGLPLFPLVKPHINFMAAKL

Insulin-degrading enzyme [9] = molecular target: T3, Insulin-degrading enzyme; assay: cellular IDE activation of Abeta substrate cleavage – fluorescence polarization, HEK cells, dose response (AID 588439); type: functional, cell-based
HEK293 [10] = assay: membrane integrity loss in HEK cells – cell-based, fluorescence, cytotoxicity control for IDE activator project, dose response (AID 588440); type: functional; details: Homo sapiens;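 further: cytotoxicity by LDH release measuring loss of membrane integrity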
HEK293 [11] = assay: optical interference in Abeta FP readout, dose response, artefact control for IDE activator project, biochemical, fluorescence polarization (AID 588442); type: functional, cell-based; details: Homo sapiens
[12] = molecular target: Disintegrin and metalloproteinase domain-containing protein 17 (Homo sapiens, UniProt P78536); assay: inhibition of ADAM17 substrate cleavage – biochemical, quenched FRET substrate, counter-screen for ADAM10 exosite inhibitor project, dose response (AID 743253)
Large T antigen = Large T antigen (Simian virus 40, UniProt P03070); type: functional, Betapolyomavirus macacae;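 further: Confirmatory-stage PubChem screen for compounds that inhibit SV40 T antigen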
cells = type: functional
[13] = molecular target: T4, Rac GTPase-activating protein 1 (Homo sapiens, UniProt Q9H0H5); assay: blockers of MgcRacGAP-driven Rac1 GTP hydrolysis – biochemical, ADP Hunter fluorescence, primary and confirmatory, confirmation (AID 624330); type: functional
T4 sequence (Q9H0H5 whole entry): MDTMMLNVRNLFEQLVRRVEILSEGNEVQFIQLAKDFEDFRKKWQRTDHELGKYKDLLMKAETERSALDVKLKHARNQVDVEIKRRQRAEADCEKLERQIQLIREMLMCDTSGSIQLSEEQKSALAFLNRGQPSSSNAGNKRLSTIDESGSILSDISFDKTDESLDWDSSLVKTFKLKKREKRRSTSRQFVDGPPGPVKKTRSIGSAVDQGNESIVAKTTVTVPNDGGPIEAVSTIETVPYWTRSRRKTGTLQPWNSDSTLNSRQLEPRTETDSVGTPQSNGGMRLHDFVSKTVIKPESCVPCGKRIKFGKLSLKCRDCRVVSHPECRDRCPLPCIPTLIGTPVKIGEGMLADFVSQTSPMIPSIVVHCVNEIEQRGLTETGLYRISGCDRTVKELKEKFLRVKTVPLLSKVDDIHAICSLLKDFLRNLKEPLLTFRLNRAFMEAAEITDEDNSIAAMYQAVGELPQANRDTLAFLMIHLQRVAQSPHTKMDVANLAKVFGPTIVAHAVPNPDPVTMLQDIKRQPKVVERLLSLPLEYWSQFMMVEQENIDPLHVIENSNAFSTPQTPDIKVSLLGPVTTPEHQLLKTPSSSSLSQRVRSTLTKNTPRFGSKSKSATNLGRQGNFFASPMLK

Chain of Cytochrome P450 2C9 (P11712 whole entry): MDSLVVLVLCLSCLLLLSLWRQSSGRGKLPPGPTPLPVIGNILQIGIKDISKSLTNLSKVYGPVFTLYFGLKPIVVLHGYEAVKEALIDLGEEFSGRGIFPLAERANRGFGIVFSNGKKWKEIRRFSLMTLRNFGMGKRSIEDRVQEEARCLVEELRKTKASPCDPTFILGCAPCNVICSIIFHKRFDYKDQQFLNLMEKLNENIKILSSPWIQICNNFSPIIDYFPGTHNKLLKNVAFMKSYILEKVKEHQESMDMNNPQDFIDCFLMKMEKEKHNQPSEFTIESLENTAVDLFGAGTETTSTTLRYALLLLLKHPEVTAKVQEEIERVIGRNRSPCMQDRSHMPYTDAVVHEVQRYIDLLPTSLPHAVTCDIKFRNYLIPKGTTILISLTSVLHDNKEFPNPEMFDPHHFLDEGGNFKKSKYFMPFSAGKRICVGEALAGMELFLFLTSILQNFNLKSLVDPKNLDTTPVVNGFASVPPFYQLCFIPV
Chain of G-protein coupled receptor 55 (Q9Y2T6 whole entry): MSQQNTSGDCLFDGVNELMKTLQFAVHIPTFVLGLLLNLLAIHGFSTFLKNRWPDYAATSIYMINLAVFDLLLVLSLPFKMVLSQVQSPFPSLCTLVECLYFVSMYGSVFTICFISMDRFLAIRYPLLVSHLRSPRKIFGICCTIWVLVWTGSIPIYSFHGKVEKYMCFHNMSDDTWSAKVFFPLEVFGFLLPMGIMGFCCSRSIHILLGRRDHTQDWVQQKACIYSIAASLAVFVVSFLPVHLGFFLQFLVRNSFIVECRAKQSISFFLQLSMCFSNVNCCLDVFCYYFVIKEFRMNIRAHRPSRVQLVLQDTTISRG
Chain of Disintegrin and metalloproteinase domain-containing protein 17 (P78536 whole entry, the tested form may be a part): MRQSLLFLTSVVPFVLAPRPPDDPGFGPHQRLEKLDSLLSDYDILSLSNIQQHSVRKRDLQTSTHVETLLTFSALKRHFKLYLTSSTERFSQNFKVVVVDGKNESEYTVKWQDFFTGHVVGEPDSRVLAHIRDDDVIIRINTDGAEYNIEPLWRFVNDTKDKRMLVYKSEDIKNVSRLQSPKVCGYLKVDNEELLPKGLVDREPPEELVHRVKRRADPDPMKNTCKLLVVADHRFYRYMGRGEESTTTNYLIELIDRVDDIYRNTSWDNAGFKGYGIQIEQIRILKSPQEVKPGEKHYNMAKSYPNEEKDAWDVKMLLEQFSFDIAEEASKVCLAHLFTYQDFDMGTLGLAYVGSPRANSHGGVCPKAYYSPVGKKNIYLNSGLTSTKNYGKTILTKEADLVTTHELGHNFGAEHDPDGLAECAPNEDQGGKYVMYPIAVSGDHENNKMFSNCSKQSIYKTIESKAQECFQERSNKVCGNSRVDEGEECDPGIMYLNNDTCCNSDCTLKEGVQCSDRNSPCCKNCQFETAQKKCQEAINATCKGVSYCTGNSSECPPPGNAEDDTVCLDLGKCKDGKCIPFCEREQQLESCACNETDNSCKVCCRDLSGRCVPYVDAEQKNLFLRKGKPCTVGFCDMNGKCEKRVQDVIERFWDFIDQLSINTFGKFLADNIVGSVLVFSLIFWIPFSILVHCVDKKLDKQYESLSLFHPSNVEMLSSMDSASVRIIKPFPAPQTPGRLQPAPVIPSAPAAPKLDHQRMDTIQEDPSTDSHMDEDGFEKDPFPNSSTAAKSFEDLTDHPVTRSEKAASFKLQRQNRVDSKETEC
Chain of Cytochrome P450 2D6 (P10635 whole entry): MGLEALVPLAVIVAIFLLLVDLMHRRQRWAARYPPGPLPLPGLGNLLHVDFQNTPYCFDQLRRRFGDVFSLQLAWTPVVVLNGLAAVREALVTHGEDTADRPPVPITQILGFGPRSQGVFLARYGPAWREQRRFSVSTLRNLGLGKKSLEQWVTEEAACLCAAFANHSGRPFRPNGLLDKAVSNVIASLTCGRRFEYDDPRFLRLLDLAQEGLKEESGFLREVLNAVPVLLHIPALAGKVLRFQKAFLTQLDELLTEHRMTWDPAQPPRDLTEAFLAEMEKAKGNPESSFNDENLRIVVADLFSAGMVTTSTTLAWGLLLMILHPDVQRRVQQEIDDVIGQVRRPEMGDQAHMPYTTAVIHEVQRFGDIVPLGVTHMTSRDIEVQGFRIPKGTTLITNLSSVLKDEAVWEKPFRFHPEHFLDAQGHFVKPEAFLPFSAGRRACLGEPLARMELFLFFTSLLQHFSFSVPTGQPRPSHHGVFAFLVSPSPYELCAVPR
Chain of Large T antigen (P03070 whole entry): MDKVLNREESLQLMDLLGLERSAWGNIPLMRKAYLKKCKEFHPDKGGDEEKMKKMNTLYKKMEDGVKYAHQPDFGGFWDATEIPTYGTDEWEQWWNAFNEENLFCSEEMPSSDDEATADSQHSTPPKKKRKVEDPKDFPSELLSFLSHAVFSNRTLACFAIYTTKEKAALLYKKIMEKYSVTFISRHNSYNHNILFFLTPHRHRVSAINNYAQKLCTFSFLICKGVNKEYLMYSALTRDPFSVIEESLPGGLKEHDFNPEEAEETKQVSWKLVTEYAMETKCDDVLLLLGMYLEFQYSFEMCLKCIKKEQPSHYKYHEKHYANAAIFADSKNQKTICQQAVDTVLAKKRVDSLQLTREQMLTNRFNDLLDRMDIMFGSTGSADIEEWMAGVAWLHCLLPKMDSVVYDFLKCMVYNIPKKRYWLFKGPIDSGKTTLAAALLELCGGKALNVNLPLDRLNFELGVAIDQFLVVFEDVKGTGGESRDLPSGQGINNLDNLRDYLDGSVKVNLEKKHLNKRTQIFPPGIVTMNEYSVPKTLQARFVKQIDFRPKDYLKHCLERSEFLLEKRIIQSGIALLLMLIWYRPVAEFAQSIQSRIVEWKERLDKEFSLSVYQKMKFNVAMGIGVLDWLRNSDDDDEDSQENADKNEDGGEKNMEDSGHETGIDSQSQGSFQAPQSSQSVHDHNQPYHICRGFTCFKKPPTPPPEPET
Chain of Ras and Rab interactor 1/Tyrosine-protein kinase ABL1 (P00519 whole entry): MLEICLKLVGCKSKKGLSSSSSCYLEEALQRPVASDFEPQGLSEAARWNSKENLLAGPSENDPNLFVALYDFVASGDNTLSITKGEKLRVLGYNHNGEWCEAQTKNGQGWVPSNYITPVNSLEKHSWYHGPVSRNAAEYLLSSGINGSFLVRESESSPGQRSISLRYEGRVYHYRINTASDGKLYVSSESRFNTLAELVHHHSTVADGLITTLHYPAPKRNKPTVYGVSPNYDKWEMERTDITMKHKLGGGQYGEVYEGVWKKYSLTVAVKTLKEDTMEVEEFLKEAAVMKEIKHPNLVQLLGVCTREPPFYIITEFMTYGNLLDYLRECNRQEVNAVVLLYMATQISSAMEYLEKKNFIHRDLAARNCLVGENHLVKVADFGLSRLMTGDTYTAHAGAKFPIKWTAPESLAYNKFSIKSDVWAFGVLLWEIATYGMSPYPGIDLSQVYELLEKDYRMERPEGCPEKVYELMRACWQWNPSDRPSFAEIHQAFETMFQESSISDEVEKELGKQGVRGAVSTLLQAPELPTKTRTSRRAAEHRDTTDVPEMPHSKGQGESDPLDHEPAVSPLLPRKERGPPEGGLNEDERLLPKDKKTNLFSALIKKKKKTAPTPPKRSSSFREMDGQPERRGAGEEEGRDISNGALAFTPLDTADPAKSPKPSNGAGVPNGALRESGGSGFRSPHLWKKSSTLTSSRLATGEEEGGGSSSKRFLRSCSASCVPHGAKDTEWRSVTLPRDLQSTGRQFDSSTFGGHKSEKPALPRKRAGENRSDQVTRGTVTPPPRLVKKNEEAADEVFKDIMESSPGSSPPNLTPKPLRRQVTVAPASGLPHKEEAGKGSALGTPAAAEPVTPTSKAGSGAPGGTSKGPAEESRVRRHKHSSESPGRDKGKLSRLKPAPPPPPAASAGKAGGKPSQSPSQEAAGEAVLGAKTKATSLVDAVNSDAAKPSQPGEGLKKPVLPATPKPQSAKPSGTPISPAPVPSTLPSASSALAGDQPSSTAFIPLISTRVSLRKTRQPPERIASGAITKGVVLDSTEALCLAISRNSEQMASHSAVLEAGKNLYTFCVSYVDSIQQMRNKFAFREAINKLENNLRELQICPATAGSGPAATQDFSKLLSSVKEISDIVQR
Chain of Ras and Rab interactor 1/Tyrosine-protein kinase ABL1 (Q13671 whole entry): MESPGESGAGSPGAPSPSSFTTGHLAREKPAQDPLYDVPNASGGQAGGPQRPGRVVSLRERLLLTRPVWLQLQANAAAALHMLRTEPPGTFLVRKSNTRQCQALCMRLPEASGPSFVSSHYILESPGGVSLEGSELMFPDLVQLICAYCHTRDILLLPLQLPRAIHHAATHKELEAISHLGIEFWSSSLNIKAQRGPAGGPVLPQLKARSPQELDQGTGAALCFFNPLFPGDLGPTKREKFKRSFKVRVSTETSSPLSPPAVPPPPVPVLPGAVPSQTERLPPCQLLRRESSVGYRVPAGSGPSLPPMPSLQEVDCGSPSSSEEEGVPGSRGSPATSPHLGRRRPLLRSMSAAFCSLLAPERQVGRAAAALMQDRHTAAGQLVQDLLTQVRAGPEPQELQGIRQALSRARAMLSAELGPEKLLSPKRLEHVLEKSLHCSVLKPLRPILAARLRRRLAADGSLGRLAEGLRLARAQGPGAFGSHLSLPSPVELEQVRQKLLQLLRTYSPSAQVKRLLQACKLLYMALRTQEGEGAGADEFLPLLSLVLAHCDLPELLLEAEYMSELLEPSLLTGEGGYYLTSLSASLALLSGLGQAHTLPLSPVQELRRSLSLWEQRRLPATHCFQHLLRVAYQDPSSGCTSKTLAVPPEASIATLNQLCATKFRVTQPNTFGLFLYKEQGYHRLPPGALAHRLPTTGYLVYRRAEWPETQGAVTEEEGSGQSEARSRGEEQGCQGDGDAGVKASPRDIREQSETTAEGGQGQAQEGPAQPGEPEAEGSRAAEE

COCCNC(=O)c1cc2c3ccccc3n(C)c2s1
IC50 [1]: 14.6 µM (inactive)
AC50 (Cytochrome P450 3A4): 28.2 µM (inconclusive)
AC50 (Cytochrome P450 2D6): inconclusive
AC50 (Cytochrome P450 2C9): inconclusive

Cc1cc(NS(=O)(=O)c2ccc(NC(=O)C(C)Oc3cccc(C)c3C)cc2)nc(C)n1 (stereo unspecified)
IC50 [2]: 10 µM (active)
IC50 [3]: 7.23 µM (active)

O=C(Nc1cccnc1)c1ccc(COc2ccccc2Br)o1
IC50 [4]: > 93.1 µM (not active)
IC50 [2]: 3.28 µM (active)
IC50 [3]: 1.5 µM (active)

C=C(C)COc1ccc(-c2n[nH]cc2Oc2ccc(OC)cc2)c(O)c1
EC50 [5]: 6.87 µM (active)
EC50 (Streptokinase A): 37.4 µM (active)
EC50 (Streptococcus): 25.8 µM (active)
EC50 [6]: > 32 µM (inactive)
AC50 [7]: 5.47 µM (active)
EC50 (Insulin-degrading enzyme [8]): > 54.7 µM (inactive)
EC50 (Insulin-degrading enzyme [9]): 20.7 µM (inactive)
IC50 (HEK293 [10]): 31.4 µM (inactive)
EC50 (HEK293 [11]): > 54.7 µM (inactive)
IC50 [12]: 12 µM (inactive)

C/C(CC(=O)Nc1ccc(N(C)C)cc1)=N\NC(=O)c1ccncc1
IC50 (Large T antigen): 13.7 µM (active)
IC50 (cells): 310 nM (active)
EC50 (Insulin-degrading enzyme [8]): 26 µM (inactive)
EC50 (Insulin-degrading enzyme [9]): > 54.7 µM (inactive)
IC50 (HEK293 [10]): > 89.2 µM (inactive)
EC50 (HEK293 [11]): > 55.9 µM (inactive)
IC50 [13]: 56.8 µM (active)

Reference: ChEMBL document CHEMBL1201862, “PubChem BioAssay data set” (2004)
